Reference: US12357536B2, “Containers with selective dissolved gas content” (BAXTER INTERNATIONAL INC., priority 2021, dated 2025)

Assays:
[1] = Stability of a trace element mix in glass bottle, 6 months at 5° C. or 40° C. (Table V); conditions: for Percentage of the recovered TE, T6M 5° C. / Percentage of the recovered TE, T6M 40° C. / Concentration recovered, T6M 5° C. / Concentration recovered, T6M 40° C.: TE mix, pH 2.2, 200 mM malic acid, glass bottle (about 3 ppm DO), heat sterilized; for Percentage of the recovered TE, T6M 5° C. / Concentration recovered, T6M 5° C.: 6 months at 5° C.; for Percentage of the recovered TE, T6M 5° C. / Percentage of the recovered TE, T6M 40° C.: vs theoretical concentration; for Percentage of the recovered TE, T6M 40° C. / Concentration recovered, T6M 40° C.: 6 months at 40° C.
Description: The solution was heat sterilized and stored 6 months at 40° C. or 5° C.(T6M 40° C. and T6M 5° C., respectively).

[2] = Regression between Se assay and log dissolved oxygen (Example 7, FIG. 13); assay type: physicochemical; conditions: fitted line Se dosage vs log oxygen content; sterilized samples stored at 40° C.
Description: The impact of oxygen seems of major importance in the stability of Selenite. […] To confirm this hypothesis, a regression test was performed between Se assay results and log(dissolved oxygen results). Only sterilized samples stored at 40° C. were considered as the sterilization and storage at high temperature seem to both increase the Se degradation.
Dissolved oxygen content is so the most impacting parameter and CQA (Critical Quality Attribute) in the stability of Selenium. As shown in the Figure, low oxygen amounts of around 0.5 ppm can be sufficient to ensure the stability of Selenite in solution, no saturation would be required.

## F [F, fluoride]
[1]
  Percentage of the recovered TE, T6M 5° C.: 94%
  Percentage of the recovered TE, T6M 40° C.: 88%

## [Se] [Se, selenium]
[1]
  Concentration recovered, T6M 5° C.: 2446 ng/mL
  Percentage of the recovered TE, T6M 5° C.: 87.2%
  Concentration recovered, T6M 40° C.: 2461 ng/mL
  Percentage of the recovered TE, T6M 40° C.: 87.7%

## [Zn] [Zn, zinc]
[1]
  Concentration recovered, T6M 5° C.: 158347 ng/mL
  Percentage of the recovered TE, T6M 5° C.: 77.8%
  Concentration recovered, T6M 40° C.: 171822 ng/mL
  Percentage of the recovered TE, T6M 40° C.: 84.4%

## O=[Se](O)O [selenite, sodium selenite]
[2]
  Oxygen amount sufficient to ensure the stability of Selenite in solution: around 0.5 ppm
[1]; in the presence of few ppm of dissolved oxygen
  Stability of selenite: stable

## [Mo] [Mo, molybdenum]
[1]
  Concentration recovered, T6M 5° C.: 653 ng/mL
  Percentage of the recovered TE, T6M 5° C.: 79.9%
  Concentration recovered, T6M 40° C.: 707 ng/mL
  Percentage of the recovered TE, T6M 40° C.: 86.6%

## [Cr] [Cr, chromium]
[1]
  Concentration recovered, T6M 5° C.: 306 ng/mL
  Percentage of the recovered TE, T6M 5° C.: 77.3%
  Concentration recovered, T6M 40° C.: 329 ng/mL
  Percentage of the recovered TE, T6M 40° C.: 83.1%

## [Cu] [Cu, copper]
[1]
  Concentration recovered, T6M 5° C.: 9784 ng/mL
  Percentage of the recovered TE, T6M 5° C.: 81.1%
  Concentration recovered, T6M 40° C.: 10504 ng/mL
  Percentage of the recovered TE, T6M 40° C.: 87.1%

## I [I, iodide]
[1]
  Concentration recovered, T6M 5° C.: 3167 ng/mL
  Percentage of the recovered TE, T6M 5° C.: 78.6%
  Concentration recovered, T6M 40° C.: 3401 ng/mL
  Percentage of the recovered TE, T6M 40° C.: 84.4%
